In PubChem BioAssay (NCI):
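These data come from cells grown in 96-well plates and exposed to compound for 48 hours at five concentrations. TGI: total growth inhibition.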

How the values were obtained:
Assay in all cases: NCI anticancer screen, dose series, 48 h
SF-539 CNS = system: SF-539 CNS
NCI-H522 lung = system: NCI-H522 lung
UACC-257 melanoma = system: UACC-257 melanoma
MALME-3M melanoma = system: MALME-3M melanoma
SF-268 CNS = system: SF-268 CNS
CAKI-1 renal = system: CAKI-1 renal
NCI-H23 lung = system: NCI-H23 lung
HOP-92 NSCLC = system: HOP-92 NSCLC
OVCAR-8 ovarian = system: OVCAR-8 ovarian
A549 NSCLC = system: A549 NSCLC
A498 renal = system: A498 renal
NCI/ADR-RES ovarian = system: NCI/ADR-RES ovarian
COLO 205 colon = system: COLO 205 colon
SK-MEL-28 melanoma = system: SK-MEL-28 melanoma
SNB-75 CNS = system: SNB-75 CNS
RXF 393 renal = system: RXF 393 renal
MCF7 breast = system: MCF7 breast
OVCAR-3 ovarian = system: OVCAR-3 ovarian
CCRF-CEM leukemia = system: CCRF-CEM leukemia

SMILES | TGI (SF-539 CNS) | TGI (NCI-H522 lung) | TGI (UACC-257 melanoma) | TGI (MALME-3M melanoma) | TGI (SF-268 CNS) | TGI (CAKI-1 renal) | TGI (NCI-H23 lung) | TGI (HOP-92 NSCLC) | TGI (OVCAR-8 ovarian) | TGI (A549 NSCLC) | TGI (A498 renal) | TGI (NCI/ADR-RES ovarian) | TGI (COLO 205 colon) | TGI (SK-MEL-28 melanoma) | TGI (SNB-75 CNS) | TGI (RXF 393 renal) | TGI (MCF7 breast) | TGI (OVCAR-3 ovarian) | TGI (CCRF-CEM leukemia)
CCOC(=O)C1C(C)C2(C#N)C(=N)OC1(C)C2(C#N)C#N (stereo unspecified) | > 100 µM | > 100 µM | > 100 µM | > 100 µM | > 100 µM | > 100 µM | > 100 µM | 97.1 µM | > 100 µM | > 100 µM | > 100 µM | > 100 µM | > 100 µM | > 100 µM | > 100 µM | 92.7 µM | > 100 µM | – | –
COc1ccc(C2=C(N)c3c(Cl)cccc3C2=O)cc1 | > 100 µM | > 100 µM | > 100 µM | > 100 µM | > 100 µM | > 100 µM | > 100 µM | > 100 µM | > 100 µM | > 100 µM | > 100 µM | > 100 µM | > 100 µM | > 100 µM | > 100 µM | – | > 100 µM | > 100 µM | > 100 µM
COc1cc2oc(-c3ccc4c(c3)OCO4)c(OC)c(=O)c2c(OC)c1O | > 100 µM | 59.2 µM | > 100 µM | > 100 µM | > 100 µM | > 100 µM | > 100 µM | 89.4 µM | > 100 µM | > 100 µM | > 100 µM | > 100 µM | > 100 µM | > 100 µM | 97.6 µM | > 100 µM | > 100 µM | > 100 µM | > 100 µM
COc1ccc2[nH]cc(C(=O)C(=O)NC34CC5CC(CC(C5)C3)C4)c2c1 | > 81.1 µM | > 100 µM | > 100 µM | > 100 µM | > 100 µM | > 100 µM | > 100 µM | > 100 µM | > 100 µM | > 100 µM | > 76.1 µM | > 100 µM | > 100 µM | > 100 µM | > 73 µM | 16.8 µM | > 31.6 µM | > 49.5 µM | 29.9 µM
N#Cc1ccc(N2CCOCC2)cc1 | > 100 µM | > 100 µM | > 100 µM | – | > 100 µM | > 100 µM | > 100 µM | > 100 µM | > 100 µM | > 100 µM | > 100 µM | > 100 µM | > 100 µM | > 100 µM | > 100 µM | > 100 µM | > 100 µM | > 100 µM | > 100 µM
